Assay results from publication PMC9338108 (Clinical Drug Investigation, 2022).
“And” between values parts separate entries of the source, which are not always exact repeats. Equal entries are not always repeated. Where two headings read alike, the source gives them in different places.

Columns and labels:
[1] = cited from earlier work
clinical = conditions: human, plasma
[2] = Safety assessment Study 106 Part A; conditions: for TEAEs related to individual study drugs: N = 33
[3] = Safety assessment Study 106 Part B; conditions: N = 24
[4] = assay type: in vivo, human
[5] = assay type: in vivo, human; remark: listed apart in the source
[6] = Safety assessment Study 114; assay type: in vivo, human; conditions: Study 114, N = 20
[7] = tested on: P-glycoprotein transporter; conditions: ref data on file, G1 Therapeutics; cited from earlier work
cytochrome P450 3A4 = conditions: background statement; cited from earlier work
[8] = ref data on file, G1 Therapeutics; cited from earlier work
[9] = cited from earlier work; remark: listed apart in the source
[10] = assay type: in vivo, human; remark: listed apart in the source
[11] = metformin 1000 mg oral single dose alone, urine, N = 25, geometric mean (CV%)
[12] = trilaciclib vs trilaciclib alone
[13] = all resolved without intervention

CN(C)C(=N)N=C(N)N [Metformin, metformin]
Tmax (metformin 1000 mg oral single dose alone, N = 25, median (range)): 2.50 (1.50–5.00) h | Ae (total amount of drug excreted in urine) [11]: 342 (25.1) mg | Fe (percentage of drug excreted in urine) [11]: 34.2 (25.1) % | geometric mean AUC0–inf higher after coadministration with trilaciclib (metformin vs metformin alone): 64.6% | geometric mean AUC0–last higher after coadministration with trilaciclib (metformin vs metformin alone): 66.0% | geometric mean Cmax higher after coadministration with trilaciclib (metformin vs metformin alone): 79.8% | AUC0–24 as share of AUC0–inf [1]: approximately 95% | Vd/F (clinical; oral): 556 L | AUC(0-inf) (clinical; po, 1000 mg): 11900 ng·h/mL | Cmax (clinical; po, 1000 mg): 1650 ng/mL | TEAEs related to individual study drugs [2]: 7 (21.2) n (%)

CO[C@H]1/C=C/O[C@@]2(C)Oc3c(C)c(O)c4c(O)c(c(/C=N/N5CCN(C)CC5)c(O)c4c3C2=O)NC(=O)/C(C)=C\C=C\[C@H](C)[C@H](O)[C@@H](C)[C@@H](O)[C@@H](C)[C@H](OC(C)=O)[C@@H]1C [Rifampin, rifampin, reference compound]
TEAEs related to individual study drugs [3]: 19 (79.2) n (%)

CN1CCN(c2ccc(Nc3ncc4cc5n(c4n3)C3(CCCCC3)CNC5=O)nc2)CC1 [Trilaciclib, trilaciclib]
Tmax ([4]; human, plasma, intravenous): 30 min | clearance ([4]; human, plasma, intravenous): 3520 mL/min | AUC(0-inf) ([4]; human, plasma, iv, 240 mg/m2): 2700 ng·h/mL | AUC(0-t) ([4]; human, plasma, iv, 240 mg/m2): 2670 ng·h/mL | Cmax ([4]; human, plasma, iv, 240 mg/m2): 1600 ng/mL | Tmax ([4]; human, plasma, iv, 240 mg/m2): 25.2 min | clearance ([4]; human, plasma, iv, 240 mg/m2): 2920 mL/min | half-life ([4]; human, plasma, iv, 240 mg/m2): 606 min | geometric mean AUC0–inf decrease with rifampin [4, 12]: 17.3% and 17% | geometric mean AUC0–last decrease with rifampin [4, 12]: 17.3% | geometric mean Cmax reduction with rifampin [4, 12]: 19.9% | Tmax ([5]; human, plasma, intravenous): 28.8 min | AUC(0-inf) ([5]; human, plasma, iv, 200 mg/m2): 3120 ng·h/mL | AUC(0-t) ([5]; human, plasma, iv, 200 mg/m2): 3070 ng·h/mL | Cmax ([5]; human, plasma, iv, 200 mg/m2): 1770 ng/mL | Tmax ([5]; human, plasma, iv, 200 mg/m2): 24 min | clearance ([5]; human, plasma, iv, 200 mg/m2): 2120 mL/min | half-life ([5]; human, plasma, iv, 200 mg/m2): 547 min | geometric mean AUC0–inf decrease with itraconazole [5, 12]: 14.0% and 13.6% | geometric mean AUC0–last decrease with itraconazole [5, 12]: 13.3% | geometric mean Cmax decrease with itraconazole [5, 12]: 28.0% | TEAEs related to individual study drugs [6]: 9 (45.0) n (%) | substrate of the P-glycoprotein transporter [7]: substrate of the P-glycoprotein transporter | time-dependent inhibitor of cytochrome P450 3A4 (cytochrome P450 3A4): time-dependent inhibitor of cytochrome P450 3A4 | unbound fraction in plasma [8]: approximately 30% | clearance [9]: 158 L/h | mean terminal half-life (t1/2) [9]: approximately 14 h | parent molecule recovered in the excreta [9]: less than 10% | TEAEs related to individual study drugs [3]: 20 (83.3) n (%) | subjects reporting TEAEs of thrombophlebitis ([2]; 25 subjects enrolled after adjustment of drug administration): 24% | TEAEs related to individual study drugs [2]: 33 (100) n (%) | subjects with Grade 3 TEAEs of neutropenia related to trilaciclib [2, 13]: 5 n | subjects with Grade 4 TEAEs of neutropenia related to trilaciclib [2, 13]: 1 n | subjects discontinued because of phlebitis in the arm related to trilaciclib administration ([2]; initial eight subjects (Site 1)): eight

Cc1ncc2n1-c1ccc(Cl)cc1C(c1ccccc1F)=NC2 [Midazolam, midazolam]
Vd/F ([10]; human, plasma, oral): 658 L | AUC(0-inf) ([10]; human, plasma, po, 5 mg): 64.6 ng·h/mL | AUC(0-t) ([10]; human, plasma, po, 5 mg): 62.1 ng·h/mL | Cmax ([10]; human, plasma, po, 5 mg): 24.4 ng/mL | Vd/F ([10]; human, plasma, po, 5 mg): 635 L | half-life ([10]; human, plasma, po, 5 mg): 341 min | CL/F ([10]; midazolam 5 mg oral single dose alone, N = 25, geometric mean (CV%)): 77.4 (34.2) L/h | Tmax ([10]; midazolam 5 mg oral single dose alone, N = 25, median (range)): 0.50 (0.25–1.50) h | Cmax decrease after multiple IV doses of trilaciclib ([10]; midazolam vs midazolam alone): 16.6% | geometric mean AUC0–inf higher after coadministration with trilaciclib ([10]; midazolam vs midazolam alone): 4.6% | geometric mean AUC0–last higher after coadministration with trilaciclib ([10]; midazolam vs midazolam alone): 4.0% | TEAEs related to individual study drugs [2]: 16 (48.5) n (%)

CCC(C)n1ncn(-c2ccc(N3CCN(c4ccc(OCC5COC(Cn6cncn6)(c6ccc(Cl)cc6Cl)O5)cc4)CC3)cc2)c1=O (centres unmarked) [Itraconazole, itraconazole, reference compound]
TEAEs related to individual study drugs [6]: 2 (10.0) n (%)
